The record followed here is patent publication US11472791B2 (Incyte Corporation, priority 2019, dated 2022).

The structures appear in SMILES notation.

For the assay, the target named is CDK2/Cyclin E1 (Homo sapiens (Human), UniProt P24941). In words: CDK2/Cyclin E1 HTRF enzyme activity assay. Conditions: 1 mM ATP. The format is biochemical. How it is done: Assays are conducted in white 384-well polystyrene plates in a final reaction volume of 8 μL. […] HTRF signals are read after 1 hour at room temperature on a PHERAstar FS plate reader (BMG Labtech). Data is analyzed with IDBS XLFit and GraphPad Prism 5.0 software using a three or four parameter dose response curve to determine IC50 for each compound.
On the technique in general: In TR-FRET formats the signal depends on donor and acceptor labels being close together.
The term IC50 denotes the concentration that gives 50% inhibition. High values mean lower potency, low ones higher potency. In the case of `Cc1cc(CN2CCN(C)CC2)ccc1-n1cc(-c2nc(NC3CCN(S(=O)(=O)c4ccn(C)n4)CC3)ncc2Cl)cn1` [Example 110, 5-Chloro-N-(1-((1-methyl-1H-pyrazol-3-yl)sulfonyl)piperidin-4-yl)-4-(1-(2-methyl-4-((4-methylpiperazin-1-yl)methyl)phenyl)-1H-pyrazol-4-yl)pyrimidin-2-amine], the IC50 was less than 50 nM.

Regarding `CN1CCN(Cc2ccc(-n3cc(-c4nc(NC5CCN(S(=O)(=O)c6cn(C)cn6)CC5)ncc4Cl)cn3)c(C#N)c2)CC1` [Example 244, 2-(4-(5-Chloro-2-((1-((1-methyl-1H-imidazol-4-yl)sulfonyl)piperidin-4-yl)amino)pyrimidin-4-yl)-1H-pyrazol-1-yl)-5-((4-methylpiperazin-1-yl)methyl)benzonitrile], the half-inhibitory concentration (IC50) is less than 50 nM.

In the case of `CCOC(=O)N1CCC(NCc2ccc(-n3cc(-c4nc(NC5CCN(S(C)(=O)=O)CC5)ncc4C#N)cn3)c(Cl)c2)CC1` [Example 197, Ethyl 4-((3-chloro-4-(4-(5-cyano-2-((1-(methylsulfonyl)piperidin-4-yl)amino)pyrimidin-4-yl)-1H-pyrazol-1-yl)benzyl)amino)piperidine-1-carboxylate], the IC50 is less than 50 nM.

`CC(C)(O)Cn1cc(-c2nc(NC3CCN(S(=O)(=O)CCCCN4CCCCC4)CC3)ncc2C(F)(F)F)cn1` [Example 81, 2-Methyl-1-(4-(2-((1-((4-(piperidin-1-yl)butyl)sulfonyl)piperidin-4-yl)amino)-5-(trifluoromethyl)pyrimidin-4-yl)-1H-pyrazol-1-yl)propan-2-ol]: the IC50 was less than 50 nM.

The molecule `CC(C)(O)Cn1cc(-c2nc(N[C@H]3CCN(S(=O)(=O)CCCN4CCCCC4)C[C@H]3F)ncc2C(F)(F)F)cn1` [Example 204, 1-(4-(2-(((3R,4S)-3-Fluoro-1-((3-(piperidin-1-yl)propyl)sulfonyl)piperidin-4-yl)amino)-5-(trifluoromethyl)pyrimidin-4-yl)-1H-pyrazol-1-yl)-2-methylpropan-2-ol] showed an IC50 of less than 50 nM.

The molecule `C[C@]1(O)C[C@@H](NCc2ccc(-n3cc(-c4nc(NC5CCN(S(=O)(=O)C6CC6)CC5)ncc4C#N)cn3)c(Cl)c2)C1` [Example 285, 4-(1-(2-Chloro-4-((((1s,3s)-3-hydroxy-3-methylcyclobutyl)amino)methyl)phenyl)-1H-pyrazol-4-yl)-2-((1-(cyclopropylsulfonyl)piperidin-4-yl)amino)pyrimidine-5-carbonitrile] gave an IC50 of less than 50 nM.

`CCN1CCN(Cc2ccc(-n3cc(-c4nc(NC5CCN(S(=O)(=O)c6cn(C)cn6)CC5)ncc4C#N)cn3)c(Cl)c2)CC1` [Example 241, 4-(1-(2-Chloro-4-((4-ethylpiperazin-1-yl)methyl)phenyl)-1H-pyrazol-4-yl)-2-((1-((1-methyl-1H-imidazol-4-yl)sulfonyl)piperidin-4-yl)amino)pyrimidine-5-carbonitrile] returned an IC50 of less than 50 nM.

In the case of `CC(C)(O)Cn1cc(-c2nc(NC3CCN(S(=O)(=O)CCCO)CC3)ncc2C(F)(F)F)cn1` [Example 92, 3-((4-((4-(1-(2-Hydroxy-2-methylpropyl)-1H-pyrazol-4-yl)-5-(trifluoromethyl)pyrimidin-2-yl)amino)piperidin-1-yl)sulfonyl)propan-1-ol], the IC50 was less than 50 nM.

Take `CC(C)(O)Cn1cc(-c2nc(NC3CCN(S(=O)(=O)CCCN4CCOCC45CC5)CC3)ncc2C(F)(F)F)cn1` [Example 73, 1-(4-(2-((1-((3-(7-Oxa-4-azaspiro[2.5]octan-4-yl)propyl)sulfonyl)piperidin-4-yl)amino)-5-(trifluoromethyl)pyrimidin-4-yl)-1H-pyrazol-1-yl)-2-methylpropan-2-ol]: the IC50 was less than 50 nM.

Consider `CCNCc1ccc(-n2cc(-c3nc(N[C@H]4CCN(S(=O)(=O)c5cn(C)cn5)C[C@H]4C)ncc3C(F)(F)F)cn2)c(C)n1` [Example 271, 4-(1-(6-((Ethylamino)methyl)-2-methylpyridin-3-yl)-1H-pyrazol-4-yl)-N-((3R,4S)-3-methyl-1-((1-methyl-1H-imidazol-4-yl)sulfonyl)piperidin-4-yl)-5-(trifluoromethyl)pyrimidin-2-amine], for which the IC50 is less than 50 nM.

`Cn1cnc(S(=O)(=O)N2CCC(Nc3ncc(C(F)(F)F)c(-c4cnn(C5CCOCC5)c4)n3)CC2)c1` [Example 23, N-(1-((1-Methyl-1H-imidazol-4-yl)sulfonyl)piperidin-4-yl)-4-(1-(tetrahydro-2H-pyran-4-yl)-1H-pyrazol-4-yl)-5-(trifluoromethyl)pyrimidin-2-amine]: the IC50 is less than 50 nM.

Turning to `C[C@]1(O)CC[C@@H](NCc2ccc(-n3cc(-c4nc(NC5CCN(S(=O)(=O)C6CC6)CC5)ncc4C#N)cn3)c(Cl)c2)CC1` [Example 283, 4-(1-(2-Chloro-4-((((1s,4s)-4-hydroxy-4-methylcyclohexyl)amino)methyl)phenyl)-1H-pyrazol-4-yl)-2-((1-(cyclopropylsulfonyl)piperidin-4-yl)amino)pyrimidine-5-carbonitrile], the 50% inhibitory concentration (IC50) was less than 50 nM.

As for `CS(=O)(=O)N1CCC(Nc2ncc(C#N)c(-c3cnn(-c4ccc(CN[C@H]5C[C@](C)(O)C5)cc4Cl)c3)n2)CC1` [Example 191, 4-(1-(2-Chloro-4-((((1r,3r)-3-hydroxy-3-methylcyclobutyl)amino)methyl)phenyl)-1H-pyrazol-4-yl)-2-((1-(methylsulfonyl)piperidin-4-yl)amino)pyrimidine-5-carbonitrile], the IC50 is less than 50 nM.

Molecule `CC(C)S(=O)(=O)N1CCC(Nc2ncc(C(F)(F)F)c(-c3cnn([C@H]4C[C@@](C)(N)C4)c3)n2)CC1` [Example 45, 4-(1-((1s,3s)-3-Amino-3-methylcyclobutyl)-1H-pyrazol-4-yl)-N-(1-(isopropylsulfonyl)piperidin-4-yl)-5-(trifluoromethyl)pyrimidin-2-amine] yielded an IC50 of less than 50 nM.

`CC(C)(O)Cn1cc(-c2nc(NC3CCN(S(=O)(=O)CCCN4CCC(C#N)CC4)CC3)ncc2C(F)(F)F)cn1` [Example 76, 1-(3-((4-((4-(1-(2-Hydroxy-2-methylpropyl)-1H-pyrazol-4-yl)-5-(trifluoromethyl)pyrimidin-2-yl)amino)piperidin-1-yl)sulfonyl)propyl)piperidine-4-carbonitrile] came in with an IC50 of less than 50 nM.

The molecule `CS(=O)(=O)N1CCC(Nc2ncc(C#N)c(-c3cnn(-c4ccc(CN[C@H]5CCC[C@H](O)C5)cc4Cl)c3)n2)CC1` [Example 181, 4-(1-(2-Chloro-4-((((1S,3S)-3-hydroxycyclohexyl)amino)methyl)phenyl)-1H-pyrazol-4-yl)-2((1-(methylsulfonyl)piperidin-4-yl)amino)pyrimidine-5-carbonitrile] gave a half-maximal inhibitory concentration (IC50) of less than 50 nM.

`CCN1CCN(Cc2ccc(-n3cc(-c4nc(NC5CCN(S(=O)(=O)c6cn(C)cn6)CC5)ncc4Cl)cn3)c(C)n2)CC1` [Example 250, 5-Chloro-4-(1-(6-((4-ethylpiperazin-1-yl)methyl)-2-methylpyridin-3-yl)-1H-pyrazol-4-yl)-N-(1-((1-methyl-1H-imidazol-4-yl)sulfonyl)piperidin-4-yl)pyrimidin-2-amine] showed an IC50 of less than 50 nM.

`CCN(CC)CCCS(=O)(=O)N1CC[C@H](Nc2ncc(C(F)(F)F)c(-c3cnn(CC(C)(C)O)c3)n2)[C@H](F)C1` [Example 202, 1-(4-(2-(((3R,4S)-1-((3-(Diethylamino)propyl)sulfonyl)-3-fluoropiperidin-4-yl)amino)-5-(trifluoromethyl)pyrimidin-4-yl)-1H-pyrazol-1-yl)-2-methylpropan-2-ol] gave a concentration for half-maximal inhibition (IC50) of less than 50 nM.

`CN[C@H]1C[C@@H](n2cc(-c3nc(NC4CCN(S(=O)(=O)c5ccccn5)CC4)ncc3C(F)(F)F)cn2)C1` [Example 49, 4-(1-((1s,3s)-3-(Methylamino)cyclobutyl)-1H-pyrazol-4-yl)-N-(1-(pyridin-2-ylsulfonyl)piperidin-4-yl)-5-(trifluoromethyl)pyrimidin-2-amine] registered an IC50 of less than 50 nM.

`CS(=O)(=O)N1CCC(Nc2ncc(C#N)c(-c3cnn(-c4ccc(CNC5(CO)CC5)cc4Cl)c3)n2)CC1` [Example 159, 4-(1-(2-Chloro-4-(((1-(hydroxymethyl)cyclopropyl)amino)methyl)phenyl)-1H-pyrazol-4-yl)-2-((1-(methylsulfonyl)piperidin-4-yl)amino)pyrimidine-5-carbonitrile] yielded an IC50 of less than 50 nM.

The molecule `Cc1cc(CN2CCN(C)CC2)ccc1-n1cc(-c2nc(NC3CCN(S(=O)(=O)c4cn(C)cn4)CC3)ncc2Cl)cn1` [Example 109, 5-Chloro-N-(1-((1-methyl-1H-imidazol-4-yl)sulfonyl)piperidin-4-yl)-4-(1-(2-methyl-4-((4-methylpiperazin-1-yl)methyl)phenyl)-1H-pyrazol-4-yl)pyrimidin-2-amine] displayed a half-inhibitory concentration (IC50) of less than 50 nM.

As for `CNCc1ccc(-n2cc(-c3nc(N[C@H]4CCN(S(C)(=O)=O)C[C@H]4F)ncc3C#N)cn2)c(Cl)c1` [Example 116, 4-(1-(2-Chloro-4-((methylamino)methyl)phenyl)-1H-pyrazol-4-yl)-2-(((3R,4S)-3-fluoro-1-(methylsulfonyl)piperidin-4-yl)amino)pyrimidine-5-carbonitrile], the IC50 was less than 50 nM.

Regarding `CS(=O)(=O)N1CCC(Nc2ncc(C#N)c(-c3cnn(-c4ccc(CN[C@H]5C[C@@H](O)C5)cc4Cl)c3)n2)CC1` [Example 162, 4-(1-(2-Chloro-4-((((1s,3s)-3-hydroxycyclobutyl)amino)methyl)phenyl)-1H-pyrazol-4-yl)-2-((1-(methylsulfonyl)piperidin-4-yl)amino)pyrimidine-5-carbonitrile], the IC50 is less than 50 nM.

In turn, `CC(=O)N1CCN(Cc2ccc(-n3cc(-c4nc(N[C@H]5CCN(S(=O)(=O)c6cn(C)cn6)C[C@H]5F)ncc4C(F)(F)F)cn3)c(C)c2)CC1` [Example 104, 1-(4-(4-(4-(2-(((3R,4S)-3-Fluoro-1-((1-methyl-1H-imidazol-4-yl)sulfonyl)piperidin-4-yl)amino)-5-(trifluoromethyl)pyrimidin-4-yl)-1H-pyrazol-1-yl)-3-methylbenzyl)piperazin-1-yl)ethan-1-one] returned an IC50 of less than 50 nM.
